{
  "source": "patent US12570627B2",
  "about": "“Pharmaceutical composition in which production of impurities is suppressed” (Shionogi & Co., Ltd., priority 2020, dated 2026)",
  "format_in_all_cases": "physicochemical",
  "key": {"[1]": {"assay": "Measurement of content ratio of compound represented by Formula (III) contained in crystal (Test Example 1)", "conditions": "crystal as produced", "protocol": "The content ratio of the compound represented by Formula (III) in the dihydrate crystal of the compound represented by Formula (I) produced in Example L was determined by the following method.\nIn Examples 1 to 4 and 6 and Reference Examples 1 to 2, the content ratio was determined in the same manner.\n(§1) A standard sample of the compound represented by Formula (III) was prepared by the following method, • Step 1: About 25 µg of the compound represented by Formula (III) was weighed precisely, and dissolved in a mixed solution of N,N-dimethylformamide and water (9:1) to make exactly 20 mL, • Step 2: One milliliter of the solution of Step 1 was accurately taken, and a mixed solution of N,N-dimethylformamide and water (9:1) was added to make exactly 50 mL. • Step 3: Two milliliters of the solution of Step 2 was accurately taken, and a mixed solution of N,N-dimethylformamide and water (9:1) was added to make exactly 20 mL, thereby obtaining a standard solution. (Preparation of Sample Solution)\n(§2) About 125 to 600 mg of a sample was weighed precisely, and dissolved by adding a mixed solution of N,N-dimethylformamide and water (9:1) to make exactly 5 mL.\n(§3) An amount of the compound represented by Formula (III) was measured with a liquid chromatograph according to the following method and conditions. • Measuring instrument: UHPLC (NexeraX2, SHIMADZU) • Detector: UV • Measurement wavelength: 271 nm • Column: ACQUITY UPLC BEH SHIELD PR18, 1.7 μm (2.1×100 mm) • Column temperature: constant temperature at near 40° C. • Mobile phase A: 20 mmol/L potassium dihydrogen phosphate aqueous solution • Mobile phase B: acetonitrile for liquid chromatography • Feed of mobile phase: The mixing ratio of mobile phase A and mobile phase B was changed as shown in Table 1 to control concentration gradient.\n(§4) • Flow rate: 0.3 mL/min • Injection amount 2 μL • Sample cooler temperature: 5° C. • Area measurement range: 11 minutes after injection • Needle washing solution: mixed solution of N,N-dimethylformamide and water (9:1) (Calculation Formula) Content (ppm) of compound represented by Formula(III)=MS/MT×AT/AS×1/2000×1000000 (Mathematical formula 4) • MS: Weighing amount (mg) of compound represented by Formula (III) • MT: Weighing amount (mg) of sample • AS: Peak area of compound represented by Formula (III) obtained from standard solution • AT: Peak area of compound represented by Formula (III) obtained from sample solution • 1/2000: Dilution ratio"}, "[2]": {"assay": "90% particle size distribution, laser diffraction HELOS & RODOS (Test Example 2)", "conditions": "dispersion pressure 4 bar", "protocol": "A 90% particle size distribution in the production method of Reference Example 1 was determined by the following method.\nIn Examples 1 to 6 and Reference Example 3, the 90% particle size distribution was determined in the same manner.\nA 90% particle size distribution was measured according to the following method and conditions. • Measuring instrument: laser diffraction particle size distribution measuring apparatus (HELOS & RODOS, Sympatec GmbH) • Dispersion pressure: 4 bar • Feed: 50% • Rotation: 20% • Focal length: 50 mm • Trigger condition: reference duration 2 seconds • Time Base 100 ms • Start Optical concentration ≥1.0% • Stop Optical concentration ≤1.0% • Measurement range: R2"}, "[3]": {"assay": "Measurement of content ratio of compound represented by Formula (III) contained in solution; increase during crystallization operation (Test Example 3)", "conditions": "for Increased amount of content ratio of compound represented by Formula (III) during crystallization operation: total in filtrate and crystal minus solution before crystallization; for Total amount of the content ratio of compound represented by Formula (III) contained in the filtrate after filtration and the obtained crystal: after crystallization; for Content ratio of compound represented by Formula (III) in the solution before crystallization: reaction solution / dissolved anhydrate crystal", "protocol": "The content ratio of the compound represented by Formula (JII) in the solution in the production method of Example 1 was determined by the following method.\nIn Example 4 and Reference Examples 2 to 3, the content ratio was determined in the same manner.\nas §1, with “the following method. • Step” for “the following method, • Step”, “About 25 mg of the” for “About 25 µg of the”, “exactly 20 mL. • Step” for “exactly 20 mL, • Step”, “exactly 20 ml, thereby obtaining” for “exactly 20 mL, thereby obtaining”\nAbout 60 to 1300 mg of a sample was weighed precisely, and dissolved by adding a mixed solution of N,N-dimethylformamide and water (9:1) to make exactly 5 mL.\nas §3, with “SHIELD PF18,” for “SHIELD PR18,”, “Table 2” for “Table 1”\n• Flow rate: 0.3 mL/min • Injection amount: 2 μL • Sample cooler temperature: 5° C. • Area measurement range: 11 minutes after injection • Needle washing solution: mixed solution of N,N-dimethylformamide and water (9:1) (Calculation formula) Content (ppm) of compound represented by Formula(III)=MS/MT×AT/AS×1/2000×YT/YS×1000000 (Mathematical formula 3) • MS: Weighing amount (mg) of compound represented by Formula (III) • MT: Weighing amount (mag) of sample • AS: Peak area of compound represented by Formula (III) obtained from standard solution • AT: Peak area of compound represented by Formula (III) obtained from sample solution • YS: Yield (g) of compound represented by Formula (I) • YT: Total weight (g) of sample • 1/2000: Dilution ratio"}, "[4]": {"assay": "Stability testing of crystal (Test Example 4)", "conditions": "for Content ratio of compound represented by Formula (III), 1M: protect from light, double polyethylene bag with desiccant, metal can", "protocol": "as §1, §2, §3, §4\nThe samples obtained in Example 1 and Reference Example 1 were subjected to a stability testing to evaluate the content of the compound represented by Formula (III).\nThe storage conditions and the packaging form of Example 1 are shown in Table 3, and the storage conditions and the packaging form of Reference Example 1 are shown in Table 4.\nSamples were placed in a polyethylene bag (Suntec-LD M2206 (additive free) 100×210×0.1 mm, TOWA KAKO CO., LTD.) and tightened with Convex (CV100N, SHIBAKEISOZAI CO., LTD.). This bag was further placed in a polyethylene (Suntec-LD M2206 (additive free) 100×210×0.1 mm, TOWA KAKO CO., LTD.) bag and similarly tightened with Convex (CV100N, SHIBAKEISOZAI CO., LTD.). The above samples under the same storage conditions were put together in a metal can (3dia, a stainless steel can with an inner diameter of 16 cm and a depth of 18 cm). • Double polyethylene bag, Convex (containing desiccant), metal can:\nSamples were placed in a polyethylene bag (Suntec-LD M2206 (additive free) 100×210×0.1 mm, TOWA KAKO CO., LTD.) and tightened with Convex (CV100N, SHIBAKEISOZAI CO., LTD.). This bag was further placed in a polyethylene bag (Suntec-LD M2206 (additive free) 100×210×0.1 mm, TOWA KAKO) CO., LTD.) and similarly tightened with Convex (CV100N, SHIBAKEISOZAI CO., LTD.). The samples under the same storage conditions were put together in a metal can (3dia, a stainless steel can with an inner diameter of 16 cm and a depth of 18 cm) containing silica gel (using raw materials manufactured by Fuji Silysia Chemical Ltd., contained in 1 g bag).\nThe content of the compound represented by Formula (III) was confirmed in the same manner as in Test Example 1."}},
  "note": "Where “and” joins values, the source holds several entries; their conditions need not be identical. Equal values may be shown once.",
  "data": [
    {"smiles": "C[C@@H](Cn1c(=O)[nH]/c(=N\\c2ccc(Oc3ccccn3)cc2)n(Cc2ccc(Cl)cc2)c1=O)C(=O)O", "note": "[Example 2]", "values": [
      {"measurement": "Content ratio of compound represented by Formula (III) in the obtained crystal", "setting": "[1]", "result": 1.0, "unit": "ppm"},
      {"measurement": "90% particle size distribution", "setting": "[2]", "result": 7.17, "unit": "μm"}
    ]},
    {"smiles": "C[C@@H](Cn1c(=O)[nH]/c(=N\\c2ccc(Oc3ccccn3)cc2)n(Cc2ccc(Cl)cc2)c1=O)C(=O)O", "note": "[Example 3]", "values": [
      {"measurement": "Content ratio of compound represented by Formula (III) in the obtained crystal", "setting": "[1]", "result": 1.5, "unit": "ppm"},
      {"measurement": "90% particle size distribution", "setting": "[2]", "result": 6.48, "unit": "μm"}
    ]},
    {"smiles": "C[C@@H](Cn1c(=O)[nH]/c(=N\\c2ccc(Oc3ccccn3)cc2)n(Cc2ccc(Cl)cc2)c1=O)C(=O)O", "note": "[Example 4]", "values": [
      {"measurement": "Content ratio of compound represented by Formula (III) in the obtained crystal", "setting": "[1]", "result": 1.30, "unit": "ppm"},
      {"measurement": "Increased amount of content ratio of compound represented by Formula (III) during crystallization operation", "setting": "[3]", "result": 8.7, "unit": "ppm"}
    ]},
    {"smiles": "C[C@@H](Cn1c(=O)[nH]/c(=N\\c2ccc(Oc3ccccn3)cc2)n(Cc2ccc(Cl)cc2)c1=O)C(=O)O", "note": "[Example 5]", "values": [
      {"measurement": "90% particle size distribution", "setting": "[2]", "result": 27.57, "unit": "μm"}
    ]},
    {"smiles": "C[C@@H](Cn1c(=O)[nH]/c(=N\\c2ccc(Oc3ccccn3)cc2)n(Cc2ccc(Cl)cc2)c1=O)C(=O)O", "note": "[Example 6]", "values": [
      {"measurement": "Content ratio of compound represented by Formula (III) in the obtained crystal", "setting": "[1]", "result": 1.0, "unit": "ppm"},
      {"measurement": "90% particle size distribution", "setting": "[2]", "result": 61.22, "unit": "μm"}
    ]},
    {"smiles": "C[C@@H](Cn1c(=O)[nH]/c(=N\\c2ccc(Oc3ccccn3)cc2)n(Cc2ccc(Cl)cc2)c1=O)C(=O)O", "note": "[Example L]", "values": [
      {"measurement": "Content ratio of compound represented by Formula (III) in the obtained crystal", "setting": "[1]", "result": "not detected"},
      {"measurement": "Content ratio of compound represented by Formula (III) in the obtained crystal", "setting": "[1]; listed as dihydrate crystal of the compound represented by Formula (I)", "result": "not contained or is below a detection limit"}
    ]},
    {"smiles": "C[C@@H](Cn1c(=O)[nH]/c(=N\\c2ccc(Oc3ccccn3)cc2)n(Cc2ccc(Cl)cc2)c1=O)C(=O)O", "note": "[Reference Example 1]", "values": [
      {"measurement": "Increased amount of compound represented by Formula (III) from the start of the test", "setting": "[4]; 40±2° C./75±5% RH, 1 month", "result": 12, "unit": "ppm"},
      {"measurement": "Content ratio of compound represented by Formula (III), 3M", "setting": "[4]; 40±2° C./75±5% RH, 3 months", "result": 18, "unit": "ppm"},
      {"measurement": "Increased amount of compound represented by Formula (III) from the start of the test", "setting": "[4]; 40±2° C./75±5% RH, 3 months", "result": 15, "unit": "ppm"},
      {"measurement": "Content ratio of compound represented by Formula (III), 3M", "setting": "[4]; 40 ± 2° C./75 ± 5% RH, 3 months, listed as Reference example 1", "result": 18, "unit": "ppm"},
      {"measurement": "Content ratio of compound represented by Formula (III), 1M", "setting": "[4]; 40 ± 2° C./75 ± 5% RH, 1 month", "result": 15, "unit": "ppm"},
      {"measurement": "Content ratio of compound represented by Formula (III), 1M", "setting": "[4]; 40 ± 2° C./75 ± 5% RH, 1 month, listed as Reference example 1", "result": 15, "unit": "ppm"},
      {"measurement": "Content ratio of compound represented by Formula (III), Initial", "setting": "[4]; start of test", "result": 3, "unit": "ppm"},
      {"measurement": "90% particle size distribution", "setting": "[2]", "result": 14.53, "unit": "μm"}
    ]},
    {"smiles": "C[C@@H](Cn1c(=O)[nH]/c(=N\\c2ccc(Oc3ccccn3)cc2)n(Cc2ccc(Cl)cc2)c1=O)C(=O)O", "note": "[Reference Example 2]", "values": [
      {"measurement": "Content ratio of compound represented by Formula (III) in the obtained crystal", "setting": "[1]", "result": "1.3 ppm and 1.30 ppm"},
      {"measurement": "Total amount of the content ratio of compound represented by Formula (III) contained in the filtrate after filtration and the obtained crystal", "setting": "[3]", "result": 316.7, "unit": "ppm"},
      {"measurement": "Content ratio of compound represented by Formula (III) in the solution before crystallization", "setting": "[3]", "result": 178.9, "unit": "ppm"}
    ]},
    {"smiles": "C[C@@H](Cn1c(=O)[nH]/c(=N\\c2ccc(Oc3ccccn3)cc2)n(Cc2ccc(Cl)cc2)c1=O)C(=O)O", "note": "[Reference Example 3]", "values": [
      {"measurement": "90% particle size distribution", "setting": "[2]", "result": 169.84, "unit": "μm"},
      {"measurement": "Total amount of the content ratio of compound represented by Formula (III) contained in the filtrate after filtration and the obtained crystal", "setting": "[3]", "result": 252.5, "unit": "ppm"},
      {"measurement": "Content ratio of compound represented by Formula (III) in the solution before crystallization", "setting": "[3]", "result": 82.0, "unit": "ppm"},
      {"measurement": "Increased amount of content ratio of compound represented by Formula (III) during crystallization operation", "setting": "[3]", "result": 170.5, "unit": "ppm"}
    ]}
  ]
}
